A short description of series [1]: Assay 4: Phase 1 multiple-ascending dose study, safety and tolerability. The following applies: healthy adult and elderly subjects, multiple oral doses up to 14 days. In kind it is in vivo, human. As for the experimental part: (§1) A Phase 1 multiple-ascending dose (MAD) clinical trial of Compound I′ (Form I) was conducted in order to further evaluate the safety, tolerability, pharmacokinetics of Compound I and its metabolite, pharmacodynamics of Compound I, food effect, absolute oral bioavailability and renal elimination of multiple ascending oral doses of Compound I′ in healthy adult and elderly subjects. As discussed below, the reported data confirms the results stemming from the SAD clinical trial.
(§2) The Phase 1 study was a double-blind, randomized placebo-controlled multiple ascending dose study in healthy male and female volunteers randomized in a 4:1 ratio. The study enrolled 50 healthy adult (19-55 years old) and elderly (65-80 years old) volunteers over multiple weeks for the ascending-dose portion, which included cohorts (n=10/cohort of 8 active and 2 placebo) administered (1) ascending doses of 50 mg, 100 mg, and 200 mg, (2) a dose of 10 mg studied in parallel with 200 mg for PK/PK, and (3) a dose of 100 mg for one elderly cohort. […] Additionally, renal elimination of Compound I was neglible after multiple dosing, e.g., <1% was observed on Day 1 and Day 14 for all subjects.

Series [2] can be described thus: Assay 4: Phase 1 multiple-ascending dose study, renal elimination. The conditions noted are these: human, after multiple dosing, Day 1 and Day 14, all subjects. In kind it is in vivo. As for the experimental part:
as §1, §2

The next series deals with human neprilysin (NEP) (Homo sapiens, UniProt P08473). In words: in vitro human neprilysin inhibitor activity (pKi). The class given is biochemical. The source says:
One measure of the ability of a compound to inhibit NEP activity is the inhibition constant (pKi). The pKi value is the negative logarithm to base 10 of the dissociation constant (Ki), which is typically reported in molar units. The compound of the invention has a pKi at NEP≥9.0.
The in vitro-to-in vivo extrapolation of drug behavior in a subject continues to improve (see, e.g., Chiba et al., AAPS J., 2009 June; 11 (2): 262-276). In the present invention, in vitro human neprilysin inhibitor activity was assessed in order to determine neprilysin inhibitory activity of Compound I and crystalline form I′. A threshold of pKi>9.0 was met. However, additional in vivo experiments were further performed in order to more accurately predict the behavior of Compound I and crystalline form I′ in a subject.

Series [3] is described as follows: Assay 1: IV/PO pharmacokinetic study in rats. In kind it is in vivo, male Sprague-Dawley rats. The following applies: rat; for AUC(0-t) / bioavailability: plasma; for AUC(0-t): read-out: AUClast Mean; for bioavailability: po. The method, then:
Each rat, dog or monkey PK study began with formulation of the test compound. Appropriate masses of each test compound were added into a volume of vehicle (e.g. 5% sodium bicarbonate, 5% dextrose in H2O) such that the final concentration of each compound was appropriate to be dosed. Although a homogenous suspension were acceptable for oral dosing, intravenous dosing solutions were sterile-filtered (0.2 μm) prior to dosing to ensure no particulates were administered.
In the rat study, pre-cannulated male Sprague-Dawley rats (3 per route) were obtained from Harlan Laboratories or Charles Rivers Laboratories. Rats received either a oral dose delivered into the stomach using a syringe and gavage tube or a intravenous (via lateral tail vein) dose of the dosing solution. The final dose was 0.5 mg/kg. Serial blood samples were harvested via the cannula implanted in the jugular vein at 3 min, 15 min, 30 min, 1 h, 2 h, 4 h, 6 h, and 24 h post-dose. Sampling was performed either manually or using automated blood samplers. Samples were collected into microtainer tubes containing EDTA as the anticoagulant and were processed to plasma by refrigerated centrifugation.
Plasma concentrations of Compound I were determined by LC/MS/MS. Plasma study samples were vortexed and placed in a 96-well plate. The samples were extracted with 200 μL of acetonitrile with an internal standard. The extract was centrifuged for 10 minutes at 2809 RPM and 50 μL supernatant was mixed with 200 μL 0.2% formic acid in water. Samples (10-15 μL) were injected on a ThermoFisher HyPURITY™ (C18 50×2.1 mm) column with a flow rate of 0.35 mL/min. Mobile phase A consisted of water: acetonitrile: formic acid (95:5:0.1, v:v:v) and Mobile phase B consisted of methanol: acetonitrile: formic acid (50:50:0.1, v:v:v) (dog). Mobile phase A consisted of 0.2% formic acid in water and mobile phase B consisted of 0.2% formic acid in acetonitrile (rat and monkey). Pharmacokinetic parameters of Compound I were determined by non-compartmental analysis (Model 201 and Model 200 for IV and PO administration, respectively) using Phoenix WinNonlin Version 6.3 (Certara, Sunnyvale, CA) and using individual plasma concentration time profiles from 3 animals per treatment group.
Plasma clearance was determined from the intravenous arm of the study, and represents the rate at which plasma is cleared of drug. It is equal to the dose divided by the area under the plasma concentration-time curve. In addition to plasma clearance, it is also essential for an orally administered drug to reach efficacious systemic levels following oral delivery. Oral bioavailability is a measurement of plasma exposures following oral administration relative to exposures following intravenous administration.

The next series addresses T1, NEP (Homo sapiens, UniProt P08473).
T1 construct: from tissue; host or cells: healthy human volunteers (in vivo)
The series can be described thus: Assay 4.1: NEP activity in human (cGMP), multiple-ascending dose study. The conditions noted are these: healthy adult and elderly subjects, 10-200 mg once daily, Day 14, over 24 h. The class given is in vivo. As for the experimental part: as §2
Part of the MAD clinical studies was to determine the mechanism/duration of action of Compound I after dosing in humans.

The nature of series [4]: Assay 3: Phase 1 single-ascending dose study, safety and tolerability. The class given is in vivo, human. The following applies: healthy volunteers, single doses up to 600 mg. The method, then:
(§3) A Phase 1 single-ascending dose (SAD) clinical trial of Compound I′ (Form I), which converts to or dissolves to provide its soluble form Compound I in the body, was conducted in order to assess neprilysin inhibition for the treatment of a range of cardiovascular and renal diseases, including, e.g., chronic kidney disease, diabetic nephropathy, acute and chronic heart failure, heart failure with reduced ejection fraction, heart failure with preserved ejection fraction, post-myocardial infarction asymptomatic left ventricular dysfunction (post-MI asymptomatic LVD), subacute heart failure and resistant and isolated systolic hypertension. Safety and tolerability, pharmacokinetic (support for QD/BID dosing and non-renal excretion), pharmacodynamic (test for target engagement biomarkers cGMP and ANP), food effect, and absolute oral bioavailability and renal elimination using a ^14C intravenous microtracer, inter alia, were tested.
The Phase 1 study was a double-blind, randomized placebo-controlled single ascending dose study in healthy male and female volunteers randomized in a 4:1 ratio. The study enrolled 56 healthy volunteers over multiple weeks for the ascending-dose portion, which included cohorts (n=10/cohort of 8 active and 2 placebo) administered single ascending doses of 50 mg, 100 mg, 200 mg, 400 mg and 600 mg. […]

Series [5] in a line: Assay 3.2: PK profile, oral bioavailability and renal excretion in human (SAD, 14C i.v. microtracer). In kind it is in vivo. The method, then:
as §3
The Phase 1 study was a double-blind, randomized placebo-controlled single ascending dose study in healthy male and female volunteers randomized in a 4:1 ratio. The study enrolled 56 healthy volunteers over multiple weeks for the ascending-dose portion, which included cohorts (n=10/cohort of 8 active and 2 placebo) administered single ascending doses of 50 mg, 100 mg, 200 mg, 400 mg and 600 mg. A sixth cohort (n=6) was administered i.v. microtracer and oral doses of 10 μg and 100 mg, respectively.

Read-outs that look alike come from different tables or passages of the source. Where only a bound is given, the exact number is not on record here.

Chain of human neprilysin (NEP) (P08473 whole entry): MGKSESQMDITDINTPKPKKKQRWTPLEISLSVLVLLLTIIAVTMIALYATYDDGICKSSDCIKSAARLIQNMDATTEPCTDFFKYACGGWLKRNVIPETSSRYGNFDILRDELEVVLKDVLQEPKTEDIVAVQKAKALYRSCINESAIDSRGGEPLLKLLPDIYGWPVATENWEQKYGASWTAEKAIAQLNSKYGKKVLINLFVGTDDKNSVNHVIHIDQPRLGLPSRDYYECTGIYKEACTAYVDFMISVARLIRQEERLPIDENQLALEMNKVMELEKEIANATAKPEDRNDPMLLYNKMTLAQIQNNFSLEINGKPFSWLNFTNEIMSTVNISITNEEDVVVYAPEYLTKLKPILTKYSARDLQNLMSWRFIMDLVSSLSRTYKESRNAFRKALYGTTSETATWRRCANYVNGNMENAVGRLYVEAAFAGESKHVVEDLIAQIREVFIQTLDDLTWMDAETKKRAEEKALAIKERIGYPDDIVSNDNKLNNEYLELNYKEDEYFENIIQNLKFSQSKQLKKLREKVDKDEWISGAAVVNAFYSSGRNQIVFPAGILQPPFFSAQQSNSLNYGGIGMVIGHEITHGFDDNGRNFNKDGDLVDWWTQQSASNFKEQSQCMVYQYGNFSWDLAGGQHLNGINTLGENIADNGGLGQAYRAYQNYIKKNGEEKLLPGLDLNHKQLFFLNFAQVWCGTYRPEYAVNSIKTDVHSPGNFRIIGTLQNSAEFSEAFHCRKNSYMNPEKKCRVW
T1 sequence (P08473 whole entry): as above

`CCOC[C@](C)(C[C@@H](Cc1ccc(-c2cc(Cl)ccc2F)cc1)NC(=O)c1cc(O)no1)C(=O)O` [Compound I, (2S,4R)-5-(5′-Chloro-2′-fluoro-[1,1′-biphenyl]-4-yl)-2-(ethoxymethyl)-4-(3-hydroxyisoxazole-5-carboxamido)-2-methylpentanoic Acid]: the tolerability result was “generally well-tolerated” in series [1] and “well-tolerated” in series [4]. Also, the renal elimination in series [2] is under 1%. Besides, on human neprilysin (NEP), the Ki is under 1 nM. Also, the AUC(0-t) in series [3] (male, Sprague-Dawley, IV, 0.5 mg/kg) was 390 ng·h/mL; in series [3] (male, Sprague-Dawley, PO, 0.5 mg/kg) it was 130 ng·h/mL. The bioavailability in series [3] (male, Sprague-Dawley, 0.5 mg/kg, read-out: Oral Bioavailability Mean) is about 33%; in series [3] (higher doses (30-1000 mg/kg), data not shown, read-out: mean bioavailability), 49 to 79%; in series [5] (both sexes, in vivo, po, 100 mg, human, SAD clinical trial), about 80%. Further, the “CLlast Mean” value amounted to 20.3 mL/min/kg in series [3] (IV, 0.5 mg/kg) and 50.2 mL/min/kg in series [3] (PO, 0.5 mg/kg). On NEP, the “change in mean plasma cGMP from baseline” value was “sustained increase in mean plasma cGMP over 24 h”. In series [5] (healthy subjects, single doses 50-600 mg), the pharmacokinetic profile result was “dose-proportional”. The “renal elimination (of total administered dose)” value in series [5] (human, SAD clinical trial, confirmed by intravenous microtracer) is on record as under 1%.

Usually Ki stands for the dissociation constant of the complex between target and ligand, obtained from inhibition or displacement. High values mean lower affinity, low ones higher affinity. In general, bioavailability refers to the share of a dose that reaches the circulation, judged against a reference dose that is usually intravenous.

For the origin of these results see US12351561B2, “Crystalline (2S,4R)-5-(5'-chloro-2'-fluoro-[1,1'-biphenyl]-4-yl)-2-(ethoxymethyl)-4-(3-hydroxyisoxazole-5-carboxamido)-2-methylpentanoic acid and uses thereof” (THERAVANCE BIOPHARMA R&D IP, LLC, priority 2016, dated 2025).
